The record followed here is US7166744B2, “Retinoid derivatives and methods for producing said compounds and anti-cancer pharmaceutical composition comprising said compounds” (Chebigen Co., Ltd., priority 2001, dated 2007).

Assay type in all cases: cell-based
For one assay, the system named is colon cancer cells. As to the kind of experiment: MTT proliferation assay, colon cancer cells (Table 1). Particulars: 48 hours, concentration required for 50% growth inhibition, read-out: IC50, activities of various retinoid derivatives in colon cancer cells. On the procedure: (§1) The effects of test compounds on proliferation of various cancer cells was examined by 3-(4,5-dimethylthiazol-2-yl)-2,5-diphenyltetrazolium bromide (MTT, Sigma) assay in a dose dependent manner. In the MTT assay, colon, liver, cervix, ovary, and breast cancer cell lines were treated with test compounds at various concentrations. Living cancer cells reduce MTT to dark blue MTT formazan that would be measured by absorbance.
(§2) Colon cancer cells, HCT116, DLD-1 and HT29, cervix cancer cells, HeLa and CaSki, ovary cancer cells, SKOV-3, 2774 and OVCAR-3, liver cancer cells, SK-Hep-1, PLCPRF5 and HepG2, and breast cancer cells, ZR75-1 and MDA-MB 231 were seeded at an initial density of 3000 cells per well in 96-well plates. After attachment of cells to the walls of the wells, the medium containing fresh retinoid was treated with various concentrations (0.5 μM, 1 μM, 2.5 μM, 5 μM, 10 μM) for 48 hours. 50 μl of MTT solution (2 mg/ml in PBS) was added to cell culture media. The reaction micture was incubated at 37° C. in a 5% CO2 atmosphere for 4 hours. The supernatant was removed and 150 μl of DMSO was added. The optical density was measured spectrophotometrically at 550 nm. […] For other retinoid derivatives according to the present invention, absorbances were measured by this procedure and IC50 values, concentrations required for 50% growth inhibition, were determined.

Assay [1] has as its system HCT116 colon cancer cells. As to the kind of experiment: MTT proliferation assay, HCT116. On the procedure: as §1, §2
Another assay deals with HT29 colon cancer cells. Description: MTT proliferation assay, HT29. On the procedure: as §1, §2
Assay [2] relates to SKOV-3 ovary cancer cells. Description: MTT proliferation assay, SKOV-3. The settings on record: ovarian cancer. On the procedure: as §1, §2
The test system of another assay is 2774 ovary cancer cells. Description: MTT proliferation assay, 2774. The settings on record: 48 hours, ovarian cancer. On the procedure: as §1, §2
Assay [3] concerns OVCAR-3 ovary cancer cells. As to the kind of experiment: MTT proliferation assay, OVCAR-3. Particulars: ovarian cancer. On the procedure:
as §1, §2

Assay [4] concerns PLCPRF5 liver cancer cells. As to the kind of experiment: MTT proliferation assay, PLCPRF5. On the procedure: as §1, §2
A further assay has as its target T1, RARα (Homo sapiens, UniProt P10276).
T1 construct: expressed in transfected cells
T1 sequence (P10276 1-462): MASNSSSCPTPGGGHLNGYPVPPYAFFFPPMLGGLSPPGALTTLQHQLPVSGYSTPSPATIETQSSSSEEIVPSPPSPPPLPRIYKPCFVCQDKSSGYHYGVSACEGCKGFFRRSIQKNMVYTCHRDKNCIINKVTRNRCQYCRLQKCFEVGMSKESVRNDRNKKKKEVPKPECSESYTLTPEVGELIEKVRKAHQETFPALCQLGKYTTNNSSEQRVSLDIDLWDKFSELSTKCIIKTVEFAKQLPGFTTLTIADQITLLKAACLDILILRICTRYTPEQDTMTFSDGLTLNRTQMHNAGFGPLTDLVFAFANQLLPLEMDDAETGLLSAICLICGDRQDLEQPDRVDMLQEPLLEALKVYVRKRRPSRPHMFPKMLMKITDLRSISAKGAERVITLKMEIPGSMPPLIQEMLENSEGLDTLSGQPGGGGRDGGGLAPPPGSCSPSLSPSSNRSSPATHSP
As to the kind of experiment: CAT reporter assay, RARα. Particulars: 1 μM, control = 1.0; for expression level of CAT enzyme, RARα −: column '−'. The text has this: In order to confirm the effect of KCBG60 according to the present invention on retinoid receptor activity, cells were cotransfected with expression vectors of receptor subfamilies and reporter genes. As the reporter gene, chloramphenicol acetyltransferase (CAT) with a transcription control site reactive to respective receptors was used.

A further assay deals with T2, RXRβ (Homo sapiens, UniProt P28702).
T2 construct: expressed in transfected cells
T2 sequence (P28702 1-533): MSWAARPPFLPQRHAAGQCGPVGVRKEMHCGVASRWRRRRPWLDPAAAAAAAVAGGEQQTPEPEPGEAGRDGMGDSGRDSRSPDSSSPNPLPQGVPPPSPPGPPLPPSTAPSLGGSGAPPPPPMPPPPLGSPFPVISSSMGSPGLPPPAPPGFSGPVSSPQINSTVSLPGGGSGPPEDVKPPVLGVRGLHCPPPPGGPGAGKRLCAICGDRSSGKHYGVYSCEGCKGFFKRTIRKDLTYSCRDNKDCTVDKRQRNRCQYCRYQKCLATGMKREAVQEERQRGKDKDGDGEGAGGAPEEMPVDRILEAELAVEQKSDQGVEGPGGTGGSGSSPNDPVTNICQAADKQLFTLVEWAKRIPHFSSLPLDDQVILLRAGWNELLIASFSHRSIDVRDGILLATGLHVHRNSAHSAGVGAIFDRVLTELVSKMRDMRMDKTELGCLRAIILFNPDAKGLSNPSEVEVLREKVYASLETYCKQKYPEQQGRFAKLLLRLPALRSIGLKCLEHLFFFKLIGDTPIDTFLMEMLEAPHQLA
As to the kind of experiment: CAT reporter assay, RXRβ. Particulars: 1 μM, control = 1.0, RA = 9-cis RA; for expression level of CAT enzyme, RXRβ −: column '−'. An excerpt:
(§3) As the reporter gene, chloramphenicol acetyltransferase (CAT) with a transcription control site reactive to respective receptors was used.

The target in the next assay is T3, RXRγ (Homo sapiens, UniProt P48443).
T3 construct: expressed in transfected cells
T3 sequence (P48443 1-463): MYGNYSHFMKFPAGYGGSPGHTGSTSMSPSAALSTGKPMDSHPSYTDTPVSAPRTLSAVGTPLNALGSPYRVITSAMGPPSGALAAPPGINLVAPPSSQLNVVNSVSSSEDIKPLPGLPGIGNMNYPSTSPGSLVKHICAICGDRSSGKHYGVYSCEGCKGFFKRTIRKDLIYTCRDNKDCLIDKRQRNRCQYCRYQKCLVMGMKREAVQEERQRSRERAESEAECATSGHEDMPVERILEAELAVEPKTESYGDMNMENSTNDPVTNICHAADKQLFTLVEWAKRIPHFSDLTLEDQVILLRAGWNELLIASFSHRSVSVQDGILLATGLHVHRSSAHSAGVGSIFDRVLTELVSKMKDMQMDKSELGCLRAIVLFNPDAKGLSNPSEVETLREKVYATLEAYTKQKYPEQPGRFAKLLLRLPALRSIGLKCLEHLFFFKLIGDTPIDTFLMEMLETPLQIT
Description: CAT reporter assay, RXRγ. The settings on record: 1 μM, control = 1.0, RA = 9-cis RA; for expression level of CAT enzyme, RXRγ −: column '−'.
Excerpt: as §3

In the case of `CC1=C(/C=C/C(C)=C/C=C/C(C)=C/C(=O)O)C(C)(C)CCC1` [ATRA, All-trans-retinoic acid, reference compound], the half-maximal inhibitory concentration (IC50) is 20 µM in the assay with colon cancer cells; 20 µM in [1] (Homo sapiens, HCT-116, 48 hours); 18 µM in the assay with HT29 colon cancer cells (Homo sapiens, HT-29, 48 hours); above 100 µM in assay [2] (Homo sapiens, SK-OV-3, 48 hours); above 100 µM in the assay with 2774 ovary cancer cells; above 100 µM in [3] (Homo sapiens, OVCAR-3, 48 hours). This molecule came in with a concentration for half-maximal inhibition (IC50) in [4] (Homo sapiens, PLC-PRF-5, 48 hours) above 500 µM. The “expression level of CAT enzyme, RARα +” value on RARα is 66.7. Moreover, the “expression level of CAT enzyme, RARα −” value on RARα is recorded as 17.3.
For `CC1=C(/C=C/C(C)=C/C=C/C(C)=C/C(=O)Nc2ccc(O)cc2)C(C)(C)CCC1` [HPR, (2E,4E,6E,8E)-[3,7-dimethyl-9-(2,6,6-trimethylcyclohex-1-enyl)-nona-2,4,6,8-tetraenoylamino]-4-hydroxyphenylamide], the IC50 with colon cancer cells is 6 to 8 µM; in assay [1] (48 hours), 6 to 8 µM; in the assay with HT29 colon cancer cells (48 hours), 8 µM; in [2] (48 hours), 2 µM; in the assay with 2774 ovary cancer cells it was 30 µM; in [3] (48 hours), 8 µM. Further, the concentration for half-maximal inhibition (IC50) in [4] (48 hours) is 20 µM. For the same molecule, at RARα, the “expression level of CAT enzyme, RARα +” value came out at 30.4. For the same molecule, the “expression level of CAT enzyme, RARα −” value at RARα is recorded as 9.9. Also, the “expression level of CAT enzyme, RXRβ +” value at RXRβ worked out at 1.4. Besides, the “expression level of CAT enzyme, RXRβ −” value on RXRβ was found to be 0.6. Besides, at RXRγ, the “expression level of CAT enzyme, RXRγ +” value is recorded as 1.5. Moreover, the “expression level of CAT enzyme, RXRγ −” value at RXRγ worked out at 1.3.
With `CCCC(=O)Oc1cc(O)ccc1NC(=O)/C=C(C)/C=C/C=C(C)/C=C/C1=C(C)CCCC1(C)C` [KCBG10, 2.2-[(2E,4E,6E,8E)-3,7-Dimethyl-9-(2,6,6-trimethylcyclohex-1-enyl)-nona-2,4,6,8-tetraenoylamino]-5-hydroxyphenylbutanoate], the IC50 with colon cancer cells amounted to 3 µM; in assay [1] (48 hours), 3 µM; in the assay with HT29 colon cancer cells (48 hours), 6 µM; in assay [2] (48 hours), 0.5 µM; in the assay on 2774 ovary cancer cells, 8 µM; in [3] (48 hours), 0.8 µM. This molecule also gave a 50% inhibitory concentration (IC50) in assay [4] (48 hours) of 12 µM.
As to `CCCC(=O)Nc1cc(NC(=O)/C=C(C)/C=C/C=C(C)/C=C/C2=C(C)CCCC2(C)C)ccc1O` [KCBG41, (2E,4E,6E,8E)-[3,7-dimethyl-9-(2,6,6-trimethylcyclohex-1-enyl)-nona-2,4,6,8-tetraenoylamino]-(3-butyrylamino-4-hydroxy)phenylamide], the IC50 amounted to 0.3 µM with colon cancer cells; 1.4 µM in assay [1] (48 hours); 1.2 µM with HT29 colon cancer cells (48 hours); 3 µM in [2] (48 hours); 2.5 µM in the assay on 2774 ovary cancer cells; 3.7 µM in assay [3] (48 hours).
`CCCC(=O)Oc1ccc(NC(=O)/C=C(C)/C=C/C=C(C)/C=C/C2=C(C)CCCC2(C)C)cc1` [KCBG60]: at RARα, the “expression level of CAT enzyme, RARα +” value is given as 1.1 and the “expression level of CAT enzyme, RARα −” value is 0.7. In addition, on RXRβ, the “expression level of CAT enzyme, RXRβ +” value is on record as 1.1 and the “expression level of CAT enzyme, RXRβ −” value was determined as 0.5. Moreover, at RXRγ, the “expression level of CAT enzyme, RXRγ +” value was 1.4 and the “expression level of CAT enzyme, RXRγ −” value came to 1.2.
On to phenyl butylate, for which, on RARα, the “expression level of CAT enzyme, RARα +” value is recorded as 0.8 and the “expression level of CAT enzyme, RARα −” value is listed as 0.7. On RXRβ, the “expression level of CAT enzyme, RXRβ +” value worked out at 1.1 and the “expression level of CAT enzyme, RXRβ −” value is listed as 0.5. Further, at RXRγ, the “expression level of CAT enzyme, RXRγ +” value is recorded as 1.2 and the “expression level of CAT enzyme, RXRγ −” value came out at 1.1.
